Results taken from patent US20260373119A1, “NOVEL COMPOUND, AND COMPOSITION FOR PREVENTING OR TREATING HER2-POSITIVE CANCER, COMPRISING SAME” (EWHA UNIVERSITY - INDUSTRY COLLABORATION FOUNDATION, priority 2022, published 2026).

Tests used:
[1] = target: T1, ELF3-MED23 protein-protein interaction (Homo sapiens, UniProt Q9ULK4); experiment: SEAP reporter assay, ELF3-MED23 PPI inhibition (293T kidney cells); type: cell-based
T1 construct: followed by the addition of either the candidate compound or MED23 protein constructs; endogenous in cells; host or cells: 293T kidney cells (MED23 endogenous; GAL4-ELF3 transfected)
T1 sequence (Q9ULK4 1-1368): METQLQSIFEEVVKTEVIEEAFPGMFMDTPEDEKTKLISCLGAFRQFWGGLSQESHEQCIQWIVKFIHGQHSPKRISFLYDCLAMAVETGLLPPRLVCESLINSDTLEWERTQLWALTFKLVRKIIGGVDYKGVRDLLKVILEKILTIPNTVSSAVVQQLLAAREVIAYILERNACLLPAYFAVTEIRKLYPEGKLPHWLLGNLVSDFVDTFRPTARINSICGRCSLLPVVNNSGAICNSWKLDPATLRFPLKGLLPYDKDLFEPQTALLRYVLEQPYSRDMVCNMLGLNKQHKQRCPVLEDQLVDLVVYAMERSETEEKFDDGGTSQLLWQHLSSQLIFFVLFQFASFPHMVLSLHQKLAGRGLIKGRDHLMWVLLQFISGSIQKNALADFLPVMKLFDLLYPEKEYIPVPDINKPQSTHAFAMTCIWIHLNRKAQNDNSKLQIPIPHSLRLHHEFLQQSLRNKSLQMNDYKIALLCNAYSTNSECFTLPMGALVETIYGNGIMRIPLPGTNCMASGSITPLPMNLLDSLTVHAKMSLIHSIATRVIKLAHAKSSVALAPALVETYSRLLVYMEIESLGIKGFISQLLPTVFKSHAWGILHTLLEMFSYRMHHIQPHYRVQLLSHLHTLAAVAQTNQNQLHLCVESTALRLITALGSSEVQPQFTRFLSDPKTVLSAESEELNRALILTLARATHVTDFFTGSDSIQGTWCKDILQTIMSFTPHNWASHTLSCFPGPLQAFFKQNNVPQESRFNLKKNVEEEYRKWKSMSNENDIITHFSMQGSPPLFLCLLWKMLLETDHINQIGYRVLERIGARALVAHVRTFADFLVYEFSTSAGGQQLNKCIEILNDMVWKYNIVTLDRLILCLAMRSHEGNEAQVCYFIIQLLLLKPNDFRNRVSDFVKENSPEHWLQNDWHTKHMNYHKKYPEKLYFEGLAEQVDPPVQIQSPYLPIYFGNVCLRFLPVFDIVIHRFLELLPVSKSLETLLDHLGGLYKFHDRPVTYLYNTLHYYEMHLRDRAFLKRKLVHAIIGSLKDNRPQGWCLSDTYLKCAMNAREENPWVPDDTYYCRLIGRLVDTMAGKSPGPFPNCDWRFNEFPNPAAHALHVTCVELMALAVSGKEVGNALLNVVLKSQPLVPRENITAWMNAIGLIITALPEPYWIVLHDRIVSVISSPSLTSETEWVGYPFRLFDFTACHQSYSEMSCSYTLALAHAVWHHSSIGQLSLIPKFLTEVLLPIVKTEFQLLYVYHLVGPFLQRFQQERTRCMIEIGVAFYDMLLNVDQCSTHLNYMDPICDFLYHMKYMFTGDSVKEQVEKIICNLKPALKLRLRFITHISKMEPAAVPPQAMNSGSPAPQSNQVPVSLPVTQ
Experimental: To verify whether the D400 and H449 residues play a critical role in the ELF3-MED23 protein-protein interaction, a SEAP assay was performed. Specifically, 293T kidney cells were seeded at a density of 5×10^3 cells/well in a 96-well microplate (SPL, Korea) and cultured overnight. Subsequently, the cells were co-transfected with 100 ng of each plasmid using transfection-optimized medium (Welgene, Korea). The plasmids used included the SEAP reporter gene (pG5IL2SX) and GAL4-ELF3 expression vector (pBJ GAL4-ELF3). For transfection, the cells were incubated with WelFectQ (Welgene, Korea) for 3 hours, followed by the addition of either the candidate compound or MED23 protein constructs (pcDNA MED23^WT, K397A, D400A, H449G, and D400A/H449G). The treated cells were incubated for 12 hours. The candidate compound was added in an incubator at 5% CO2 and 37 °C, and the plate was incubated at 65 °C for 3 hours to inactivate all enzymes except SEAP (Secreted Alkaline Phosphatase). A mixture comprising 100 μL of substrate solution prepared with 1.19 μL of 0.1 M 4-methylumbelliferyl phosphate (Sigma, USA), 25 μL of inactivated medium, and 75 μL of double-distilled water was added, followed by the addition of 98.81 μL of 2 M diethanolamine (pH 10, Sigma, USA). The plate was incubated overnight at 37 °C. Subsequently, the fluorescence intensity was measured using a fluorometer (SPECTRAmax […], Molecular Devices, USA) at an excitation wavelength of 360 nm and an emission wavelength of 440 nm.
To further elaborate on the above findings, small molecule compounds that could affect the ELF3-MED23 PPI were designed and synthesized. Specifically, non-essential side chains were removed from gefitnib, and compounds were designed to include both hydrogen bond donors and acceptors for the D400 and H449 residues of MED23, respectively (FIG. 4A). Specifically, chalcones and pyrazolines were selected as core scaffolds, and 25 compounds (11 chalcones and 14 pyrazoline-based compounds) were prepared. The ELF3-MED23 PPI inhibitory activity of all prepared compounds was measured using a SEAP assay.

MED23391-625 fragment = MED23391-625 fragment (Homo sapiens, UniProt Q9ULK4); experiment: LC-MS/MS protein-small molecule interaction, MED23 fragments; type: binding
TZMB-resistant cells = experiment: clonal analysis; type: cell-based; settings: 14 days; TZMB 10 or 20 μg/mL, YK1 0.5 or 1 μM
Experimental: To validate the above results, clonal analysis was performed. […] The incubated cells were fixed with 100% methanol for 1 hour and then stained with 200 μL of crystal violet solution per well. After washing the cells with tap water, images were captured using a ChemiDoc bio-image analyzer (Bio-Rad), and quantification was performed with ImageJ software (NIH, Bethesda, MD, USA). All processes following the fixation were conducted at room temperature.

With `CC(=O)N1N=C(c2cccc(O)c2)CC1c1ccc(Cl)cc1` (stereo not shown) [Compound 15, 1-[5-(4-Chlorophenyl)-3-(3-hydroxyphenyl)-4,5-dihydropyrazol-1-yl]-ethanone] the IC50 ([1]; ELF3-MED23 PPI) was 1180 ± 340 nM, the inhibition at 10 µM ([1]; HEK-293T, 10 μM) was 95% and the “interaction with MED23 fragments” value (MED23391-625 fragment) was “specifically interacted with the MED23391-625 fragment”. For the same molecule, the “effect against TZMB resistance in clonal analysis” value (TZMB-resistant cells) was “effective against TZMB resistance”.
